Source: patent publication US11993640B2, “Treating inflammatory lung disease” (United States Government as represented by the Department …, priority 2019, dated 2024)
Non-standard residues stand in square brackets, D forms with d. Residues, ends and D or L forms follow the SMILES beside them. *: point of attachment. Phenylacetyl(2,3,4,5,6-F5) = O=C(Cc1c(F)c(F)c(F)c(F)c1F)*; Phe(F5) = N[C@@H](Cc1c(F)c(F)c(F)c(F)c1F)C(=O)O; hArg = N=C(N)NCCCC[C@H](N)C(=O)O; 12Ado = NCCCCCCCCCCCC(=O)O; Nle = CCCC[C@H](N)C(=O)O; Orn = NCCC[C@H](N)C(=O)O; Abu = CC[C@H](N)C(=O)O; PhAc = O=C(Cc1ccccc1)*

Assays:
rat pituitary cells = assay: Inhibition of GHRH(1-29)NH2-stimulated GH release from rat pituitary cells (ELISA); format: cell-based; conditions: analog 20 nM
Protocol: In vitro assessment of the antagonistic activity of GHRH analogs. Rats were decapitated and pituitaries were collected in pre-warmed HBSS (Hanks' Balanced Salt Solution). Tissue was then cut into small pieces and digested in HBSS medium containing 3% BSA, 50 μg/ml gentamycin and 0.5% collagenase for 50 minutes at 37° C. Cells were further dispersed by pipetting and passed through a 100 μm cell strainer with the addition of DMEM containing 50 μg/ml gentamycin, 10% horse serum and 2.5% FBS (growth medium). Cells were harvested at 475×g for 2 minutes, resuspended in fresh growth medium and seeded onto poly-D-lysine-coated 24-well plates (7 pituitaries/plate). Cells were left to recover for 4 days. Growth medium was then replaced with serum-free DMEM for 4 hours and GHRH analogs (at concentration of 20 nM) were added in DMEM containing 0.1% BSA for 30 minutes. Cells were replenished with medium containing the same concentration of the analogs and 1 nM GHRH(1-29)NH2 for 30 minutes. Medium from this step was collected, centrifuged at 800 g for 3 minutes and GH concentration was determined by ELISA (ALPCO Diagnostics, Mill Valley, CA) according to the manufacturer's instruction.

[1] = tested on: C57Bl/6J mice treated with bleomycin; assay: RNAseq and pathway analysis of lung tissue of bleomycin-treated mice; format: in vivo, mouse; conditions: bleomycin 28 days, MIA-602 versus vehicle
Protocol: Bleomycin and GHRH-R antagonist treatment. Mice were treated with 0.8 units of bleomycin (Bleomycin for Injection USP, Hospira, Lake Forest, IL) intraperitoneally (IP) on days 1, 3, 7, 10, 14 and 21 (Collins S, Chan-Li Y, Oh M, Vigeland C, Limjunyawong N, Mitzner W, Powell J D, Horton M R (2016). JCI Insight 1(4):1-13). Mice (randomly assigned) were simultaneously treated subcutaneously (sc) with MIA-602 (5 μg/day) or its vehicle (100 μL/day). MIA-602 was dissolved in DMSO (ACS grade; Sigma-Aldrich) and diluted 1:500 in normal saline for daily sc injection on days 0-21.
RNA isolation. RNA was extracted from fixed lung tissue in paraffin blocks using a Quick-RNA™ FFPE Kit (R1008, Zymo Research, Irvine, CA) following the manufacturer's protocol (Patel P, Selvarajah S, Guerard K, Bartlett J, Lapointe J, Berman D, Okello J, Park P (2017). PLoS ONE 12:e0179732). […]
RNAseq and Pathway analyses. […] Cluster generation and sequencing was done on the Illumina cBOT and HiSeq 3000 using reagents provided by Illumina, finally generating >32 million single-end 100 base reads per sample. […]
Gene counts were normalized using trimmed mean of M-values (TMM) method. Differential expression between groups was calculated with the exact test implemented in edgeR (Robinson M, McCarthy D, Smyth G (2010). Bioinformatics 26:139-140). […]

OVCAR-3 cells = assay: In vitro cell viability, ovarian cancer OVCAR-3; format: cell-based, human; conditions: * at concentration of 2 μM for 72 h; Table 3B
Protocol: The inhibitory effects of the various synthesized GHRH antagonists were tested in cell proliferation assays in various human cancer cell lines including stomach cancer (KATOIII, N87), colon cancer (HT-29), urothelial cancer (J82, RT4), pancreatic cancer (PANC-1, CFPAC-1), prostatic cancer (PC3), breast cancer (MX-1, HCC1806), ovarian cancer (SK-OV-3, OVCAR-3) and lung cancer (HCC827, H460).
Cell culture. Human cancer cell lines including pancreatic (PANC-1 and CFPAC-1), lung (HCC827 and H460), stomach (NCI-N87 and KATOIII), urothelial (J82, RT4), prostatic (PC3), breast (MX-1 and HCC 1806), colorectal (HT-29), and ovarian (SK-OV-3 and OVCAR-3) were obtained from the American Type Culture Collection (ATCC) and cultured at 37° C. in a humidified 95% air/5% CO2 atmosphere in the medium recommended by ATCC.
In vitro cell viability. Cell viability was analyzed as follows: cancer cells including pancreatic (PANC-1 and CFPAC-1), lung (HCC827 and H460), stomach (NCI-N87 and KATOIII), urothelial (J82, RT4), prostatic (PC3) and breast (MX-1 and HCC 1806), colorectal (HT-29) and ovarian (SK-OV-3 and OVCAR-3) were grown on 96 well plates to ˜60% confluence, the cells were starved for 24 h in culture medium containing 0.5% FBS. […] Cell viability was measured using CellTiter 96 aqueous one solution kit (Promega). […]

| Structure (SMILES) | Inhibitory effect on the release of GH compared with MIA-602 (rat pituitary cells) | Lung gene expression, RNA-seq pathway analysis [1] | In vitro relative inhibitory potency in comparison to MIA-602, OVCAR-3 (OVCAR-3 cells) |
| --- | --- | --- | --- |
| CCCC[C@H](NC(=O)[C@@H](NC(=O)[C@H](CC(=O)O)NC(=O)[C@H](CCC(N)=O)NC(=O)[C@H](CC(C)C)NC(=O)[C@H](CC(C)C)NC(=O)[C@H](CCCCN)NC(=O)[C@H](CCCNC(=N)N)NC(=O)[C@H](C)NC(=O)[C@H](CO)NC(=O)[C@H](CC(C)C)NC(=O)[C@H](CCC(N)=O)NC(=O)[C@H](CC)NC(=O)[C@H](CC(C)C)NC(=O)[C@@H](NC(=O)[C@H](CCCCN)NC(=O)[C@H](CCCNC(=N)N)NC(=O)[C@H](Cc1ccc(OC)cc1)NC(=O)[C@H](CCCCNC(=N)N)NC(=O)[C@H](C)NC(=O)[C@@H](NC(=O)[C@H](Cc1c(F)c(F)c(F)c(F)c1F)NC(=O)[C@@H](NC(=O)[C@H](C)NC(=O)[C@H](CC(=O)O)NC(=O)[C@@H](CCCNC(=N)N)NC(=O)[C@H](Cc1ccc(O)cc1)NC(=O)CCCCCCCCCCCNC(=O)Cc1c(F)c(F)c(F)c(F)c1F)[C@@H](C)CC)[C@@H](C)O)C(C)C)[C@@H](C)CC)C(=O)N[C@H](CCCNC(=N)N)C(=O)N[C@@H](CCCCNC(=N)N)C(=O)NC [AVR-235] ({Phenylacetyl(2,3,4,5,6-F5)-12Ado}-Y[dR]DAI[Phe(F5)]TA[hArg]Y(Me)RKVL[Abu]QLSARKLLQDI[Nle][dR][hArg]-NHMe) | higher inhibitory effects than MIA-602 |  |  |
| CCCC[C@H](NC(=O)[C@@H](NC(=O)[C@H](CC(=O)O)NC(=O)[C@H](CCC(N)=O)NC(=O)[C@H](CC(C)C)NC(=O)[C@H](CC(C)C)NC(=O)[C@H](CCCN)NC(=O)[C@H](Cc1c[nH]cn1)NC(=O)[C@H](C)NC(=O)[C@H](CO)NC(=O)[C@H](CC(C)C)NC(=O)[C@H](CCC(N)=O)NC(=O)[C@H](CC)NC(=O)[C@H](CC(C)C)NC(=O)[C@@H](NC(=O)[C@H](CCCN)NC(=O)[C@H](Cc1c[nH]cn1)NC(=O)[C@H](Cc1ccc(OC)cc1)NC(=O)[C@H](CCCCNC(=N)N)NC(=O)[C@H](C)NC(=O)[C@@H](NC(=O)[C@H](Cc1c(F)c(F)c(F)c(F)c1F)NC(=O)[C@@H](NC(=O)[C@H](C)NC(=O)[C@H](CC(=O)O)NC(=O)[C@@H](CCCNC(=N)N)NC(=O)[C@H](Cc1ccc(O)cc1)NC(=O)CCCCCCCCCCCNC(=O)Cc1ccccc1)[C@@H](C)CC)[C@@H](C)O)C(C)C)[C@@H](C)CC)C(=O)N[C@H](CCCNC(=N)N)C(=O)N[C@@H](CCCCNC(=N)N)C(N)=O [MIA-602, PhAC-Ada, Tyr D-Arg, Asp, Ala, Ile, 5FPhe, Thr, Ala, Har, Tyr(Me), His, Orn, Val, Leu, Abu, Gin, Leu, Ser, Ala, His, Orn, Leu, Leu, Gin, Asp, Ile, Nle, D-Arg, Har NH2, reference compound] ({PhAc-12Ado}-Y[dR]DAI[Phe(F5)]TA[hArg]Y(Me)H[Orn]VL[Abu]QLSAH[Orn]LLQDI[Nle][dR][hArg]-NH2) |  | suppression of the adaptive immune response, T cell differentiation and activation and cytokine production | 1 |
